For eleven compounds, MBC results are on record in patent US4820717A, “Antimicrobial aromatic derivatives substituted by an (omega amino) alkanol group and compositions containing them” (priority 1985, dated 1989).

Type in all cases: cell-based
The subject of experiment [1] is Streptococcus faecalis CNCM 5855. Description: Bactericidal activity (MBC), strain 4. The conditions noted are these: Enterococcus faecalis, CNCM5855, 20 min; strain 4, 20 minutes of contact; read-out: Minimum bactericidal concentration (MBC). From the text: (§1) The bactericidal activity of the products according to the invention has been analyzed on various strains by the method described hereafter:
(§2) A bacterial inoculum is placed in contact with different dilutions of the product to be tested, and this for a limited period of time. At the end of contact, an aliquot part of the mixture bacterial suspension/product is deposited on the surface of an agar culture medium containing an agent neutralizing the antibacterial activity of the product. The bactericidal concentration retained is the smallest concentration of the product from which bacteria stop growing. Said concentration is expressed in μg/ml.
(§3) The bacterial strains selected for the analysis are:
4--Streptococcus faecalis CNCM 5855;
(§4) The second strain is supported on a Worgel Fergusson medium, the other strains being supported on Tryptic Soy Agar-Difco (TSA) commercialized by Difco.
(§5) After a 24-hour culture period at 37° C., the microbial growth is collected by means of glass beads and of 10 ml of diluent containing 1 g of tryptone and 8.5 g of sodium chloride in 1000 ml of distilled water. The formed suspension is stirred and the percentage of light transmission at 620 nm is measured with a spectrophotometer:
(§6) The bacterial inoculum corresponds to a 1/20th dilution of this bacterial suspension.
(§7) Plates equipped with cupules receive different dilutions of the product to be analyzed. These dilutions are placed in contact with the different bacterial suspensions by means of a multiple-center inoculator. After 20 minutes of contact, aliquot parts are transferred by means of said inoculator on the surface of an agar medium (TSA) in Petri dishes, containing an activity-neutralizing agent, namely 20 g of lubrol W, 25 g of Tween 80 and 2.5 g of sodium thiosulfate in 1000 ml of TSA (Difco). The efficiency of the neutralizing agent is controlled for each product to be analyzed by depositing on the surface of the culture medium an aliquot part of the dilution of the product to be analyzed. After drying, the corresponding inoculum is deposited in the same place. An inoculum control is performed on an agar medium with or without neutralizing agent. Readings are taken after 48 hours of incubation at 37° C.

For experiment [2], the system named is Encapsulated klebsiella pneumoniae R030. Description: Bactericidal activity (MBC), strain 2. The conditions noted are these: 20 min, strain 2, 20 minutes of contact, read-out: Minimum bactericidal concentration (MBC).
Description: as §1, §2, §3
2--Encapsulated klebsiella pneumoniae R030;
as §4, §5, §6, §7

Experiment [3] has as its system Pseudomonas aeruginosa CNCM A22. Description: Bactericidal activity (MBC), strain 3. The conditions noted are these: CNCMA22, 20 min, strain 3, 20 minutes of contact, read-out: Minimum bactericidal concentration (MBC).
Description: as §1, §2, §3
3--Pseudomonas aeruginosa CNCM A22;
as §4, §5, §6, §7

Experiment [4] deals with Escherichia Coli CNCM 54125. Description: Bactericidal activity (MBC), strain 1. To be noted: 20 min, strain 1, 20 minutes of contact, read-out: Minimum bactericidal concentration (MBC).
Description: as §1, §2, §3
1--Escherichia Coli CNCM 54125;
as §4, §5, §6, §7

The subject of experiment [5] is Staphylococcus aureus CNCM 53154. The experiment is described as follows: Bactericidal activity (MBC), strain 5. The conditions noted are these: CNCM53154, 20 min, strain 5, 20 minutes of contact, read-out: Minimum bactericidal concentration (MBC).
Description: as §1, §2, §3
5--Staphylococcus aureus CNCM 53154.
as §4, §5, §6, §7

Converted amounts (≈) assume the structure as drawn.

As to `OCC(CCN1CCCCC1)c1ccc2ccccc2c1` (stereo not shown) [SR 43 154 A], the MBC in experiment [1] was 1500 µg/mL (≈ 5290 µM); in experiment [2] it was 1500 µg/mL (≈ 5290 µM); in experiment [3], 800 µg/mL (≈ 2820 µM); in experiment [4] it was 2000 µg/mL (≈ 7060 µM); in experiment [5] it was 1000 µg/mL (≈ 3530 µM).
Regarding `CCC(CO)(CCN1CCCCC1)c1cccc2ccccc12.Cl` (stereo not shown) [SR 43 245 A, 2-ethyl-2-(1-naphthyl)-4-piperidino-butanol hydrochloride], the MBC in experiment [1] was 1500 µg/mL; in experiment [2], 1000 µg/mL; in experiment [3], 800 µg/mL; in experiment [4], 1500 µg/mL; in experiment [5], 1000 µg/mL.
As to `CC1CCN(CCCC(CO)c2cccc3ccccc23)CC1` (stereo not shown) [SR 43 290 A], the MBC is 4000 µg/mL (≈ 12800 µM) in experiment [1]; 800 µg/mL (≈ 2570 µM) in experiment [2]; 800 µg/mL (≈ 2570 µM) in experiment [3]; 1500 µg/mL (≈ 4820 µM) in experiment [4]; 800 µg/mL (≈ 2570 µM) in experiment [5].
With `CN1CCN(CCC(CO)c2cccc3ccccc23)CC1` (stereo not shown) [SR 43 291A, reference compound], the MBC is > 10000 µg/mL in experiment [1]; 3000 µg/mL (≈ 10100 µM) in experiment [2]; 1000 µg/mL (≈ 3350 µM) in experiment [3]; 5000 µg/mL (≈ 16800 µM) in experiment [4]; 8000 µg/mL (≈ 26800 µM) in experiment [5].
For the compound `OCC(CCN1CCCCCC1)c1c(Cl)cccc1Cl` (stereo not shown) [SR 43 703 A], the MBC came to 800 µg/mL (≈ 2530 µM) in experiment [1]; 600 µg/mL (≈ 1900 µM) in experiment [2]; 400 µg/mL (≈ 1260 µM) in experiment [3]; 600 µg/mL (≈ 1900 µM) in experiment [4]; 1000 µg/mL (≈ 3160 µM) in experiment [5].
For the compound `OCC(CCN1CCC(Cc2ccccc2)CC1)c1ccccc1` (stereo not shown) [SR 43 705 A], the MBC in experiment [1], in experiment [2], in experiment [3], in experiment [4] and in experiment [5] was 500 µg/mL (≈ 1550 µM) throughout.
For `OCC(CCN1CCCCCC1)c1ccc(Cl)cc1Cl` (stereo not shown) [SR 43 802 A], the MBC turned out to be 2000 µg/mL (≈ 6320 µM) in experiment [1]; 1000 µg/mL (≈ 3160 µM) in experiment [2]; 1000 µg/mL (≈ 3160 µM) in experiment [3]; 1000 µg/mL (≈ 3160 µM) in experiment [4]; 5000 µg/mL (≈ 15800 µM) in experiment [5].
Regarding `CCN(CC)CCCCCCC(CO)c1cccc2ccccc12` (stereo not shown) [SR 43 940 A], the MBC in experiment [1], in experiment [2], in experiment [3], in experiment [4] and in experiment [5] was 50 µg/mL (≈ 153 µM) in each case.
In the case of `OCC(CCCN1CCN(c2ccccc2)CC1)c1ccccc1` (stereo not shown) [SR 43 970 A, reference compound], the MBC in experiment [1] came to 10000 µg/mL (≈ 30800 µM); in experiment [2], 5000 µg/mL (≈ 15400 µM); in experiment [3] it was 2000 µg/mL (≈ 6160 µM); in experiment [4], 5000 µg/mL (≈ 15400 µM); in experiment [5] it was 5000 µg/mL (≈ 15400 µM).
With `Cc1cccc(C(CO)CCN2CCC(Cc3ccccc3)CC2)c1` (stereo not shown) [SR 44 226 A], the MBC turned out to be 1000 µg/mL (≈ 2960 µM) in experiment [1]; 1000 µg/mL (≈ 2960 µM) in experiment [2]; 500 µg/mL (≈ 1480 µM) in experiment [3]; 1000 µg/mL (≈ 2960 µM) in experiment [4]; 2000 µg/mL (≈ 5930 µM) in experiment [5].
With `OCC(CCN(C1CCCCC1)C1CCCCC1)c1cccc2ccccc12` (stereo not shown) [SR 44 227 A], the MBC in experiment [1] was found to be 100 µg/mL (≈ 263 µM); in experiment [2] it was 300 µg/mL (≈ 790 µM); in experiment [3] it was 500 µg/mL (≈ 1320 µM); in experiment [4], 100 µg/mL (≈ 263 µM); in experiment [5], 500 µg/mL (≈ 1320 µM).
